As a reminder, the IC50 is the concentration that gives 50% inhibition.

T2 sequence (P22607 23-806, species assumed): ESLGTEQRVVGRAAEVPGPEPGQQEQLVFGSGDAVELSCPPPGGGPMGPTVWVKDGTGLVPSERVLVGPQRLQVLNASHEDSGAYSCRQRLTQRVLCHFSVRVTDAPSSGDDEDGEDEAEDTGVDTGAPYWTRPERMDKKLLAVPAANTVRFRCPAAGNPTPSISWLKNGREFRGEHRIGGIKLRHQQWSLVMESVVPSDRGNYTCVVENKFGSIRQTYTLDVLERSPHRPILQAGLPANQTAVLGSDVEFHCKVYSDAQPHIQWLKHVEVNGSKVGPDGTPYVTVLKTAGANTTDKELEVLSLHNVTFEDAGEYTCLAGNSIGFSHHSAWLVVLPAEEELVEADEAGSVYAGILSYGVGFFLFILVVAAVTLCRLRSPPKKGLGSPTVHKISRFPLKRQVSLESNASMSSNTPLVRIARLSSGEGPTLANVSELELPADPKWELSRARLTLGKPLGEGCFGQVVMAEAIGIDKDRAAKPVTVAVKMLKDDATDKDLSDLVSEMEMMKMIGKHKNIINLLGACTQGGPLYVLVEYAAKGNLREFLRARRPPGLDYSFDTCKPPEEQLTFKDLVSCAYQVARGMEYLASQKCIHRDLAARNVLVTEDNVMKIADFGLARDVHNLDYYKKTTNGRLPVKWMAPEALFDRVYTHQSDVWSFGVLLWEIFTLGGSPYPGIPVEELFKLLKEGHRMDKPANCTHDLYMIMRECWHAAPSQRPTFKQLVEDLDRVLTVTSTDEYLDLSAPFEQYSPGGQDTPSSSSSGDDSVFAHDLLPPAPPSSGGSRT

In the first assay the target is T1, FGFR1 (Homo sapiens, UniProt P11362).
T1 construct: purchased Upstate Company
T1 sequence (P11362 22-822, species assumed): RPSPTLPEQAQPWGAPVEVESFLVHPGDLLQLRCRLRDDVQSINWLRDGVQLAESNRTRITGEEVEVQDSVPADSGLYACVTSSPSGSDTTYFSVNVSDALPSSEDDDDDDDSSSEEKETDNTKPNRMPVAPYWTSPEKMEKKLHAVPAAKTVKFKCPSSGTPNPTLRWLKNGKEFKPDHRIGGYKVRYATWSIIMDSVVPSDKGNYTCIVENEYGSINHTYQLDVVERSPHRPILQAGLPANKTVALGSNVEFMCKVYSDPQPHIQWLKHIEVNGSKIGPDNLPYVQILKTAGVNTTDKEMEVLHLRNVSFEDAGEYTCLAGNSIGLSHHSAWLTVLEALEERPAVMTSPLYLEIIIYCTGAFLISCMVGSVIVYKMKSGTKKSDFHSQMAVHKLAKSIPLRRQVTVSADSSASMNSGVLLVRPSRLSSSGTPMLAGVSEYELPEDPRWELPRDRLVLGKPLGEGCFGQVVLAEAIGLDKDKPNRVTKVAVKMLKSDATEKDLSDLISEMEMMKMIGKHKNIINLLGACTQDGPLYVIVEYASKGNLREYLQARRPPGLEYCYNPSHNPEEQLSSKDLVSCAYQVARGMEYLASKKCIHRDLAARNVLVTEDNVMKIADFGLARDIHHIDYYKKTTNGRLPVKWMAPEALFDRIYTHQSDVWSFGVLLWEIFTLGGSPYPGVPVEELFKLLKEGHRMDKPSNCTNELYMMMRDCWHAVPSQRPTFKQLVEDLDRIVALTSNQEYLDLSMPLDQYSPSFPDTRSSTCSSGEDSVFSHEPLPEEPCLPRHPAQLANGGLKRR
Put plainly: Inhibition of FGFR1 kinase (fluorescence polarization kinase assay). It counts as biochemical. The settings on record: Table 2, class symbols; read-out: FGFR1 IC50. The method, then: (§1) Inhibition activities of kinases of the inventive compounds (test compounds) prepared in the Examples were assessed and represented as IC50 values.
(§2) Kinases used in Test Examples 1 to 3 were purchased from Upstate Company.
(§3) 100 mM HEPES (pH 7.4), 25 mM MgCl2, 10 mM MnCl2 and 250 μM Na3VO4 were mixed to prepare a kinase buffer. Each of kinases to be measured was diluted to a concentration of 25˜300 ng per one reaction according to its activity with the kinase buffer. Also, each of the test compounds was serially diluted to a concentration starting from 100 nM up to 0.1 nM with the kinase buffer. 10 μl of the serially diluted solution of each of the test compounds and 10 μl of the diluted kinase were added to each well of a 96-well microplate, and the plate was incubated at room temperature for 10 mins. 10 μl of a substrate and 10 μl of ATP were successively added thereto to initiate a kinase reaction, and the resulting mixture was incubated at room temperature for 1 hour. The ATP was used in a form of a solution diluted to a concentration determined according to a kinase's Km value with distilled water. 10˜100 ng/mL poly(Glu, Tyr) 4:1 (Sigma) was used as the substrate. 10 μl of 6 mM EDTA was added to each well and stirred for 5 mins to terminate the kinase reaction. For a measurement of phosphorylation degree, 50 μl of a solution containing anti-phosphotyrosine antibody and fluorescein-labeled phosphopeptide was added to the reaction mixture, followed by incubating for 30 mins. The FP (fluorescence polarization) value of each well was determined with a Victor™ D fluorescence meter (Perkin Elmer Lifesciences).
(§4) IC50, the concentration at which 50% inhibition occurs, was evaluated based on the difference between the final concentration of the test cells and the initial concentration of the cells incubated in a well not-treated with the test compound which was regarded as 100%. IC50 values of the test compounds on the FGFR kinase were shown in Table 2, and those of the test compound obtained in Example 177 on various kinases, in Table 3.
A general note: Fluorescence polarisation rises when a labelled molecule tumbles more slowly, as on binding a larger partner.
Consider `CCN1CCN(Cc2ccc(Nc3ncnc4c(C(=O)Nc5c(Cl)c(OC)cc(OC)c5Cl)csc34)nc2)CC1` [Example 179, N-(2,6-dichloro-3,5-dimethoxyphenyl)-4-(5-((4-ethylpiperazin-1-yl)methyl)pyridin-2-ylamino)thieno[3,2-d]pyrimidine-7-carboxamide], for which the half-maximal inhibitory concentration (IC50) was in the range of 1 to 100 nM. Regarding `COc1cc(OC)c(Cl)c(NC(=O)c2csc3c(NCCNc4ccccc4)ncnc23)c1Cl` [Example 304, N-(2,6-dichloro-3,5-dimethoxyphenyl)-4-(2-(phenylamino)ethyl-amino)thieno[3,2-d]pyrimidine-7-carboxamide], the IC50 lay within 1000 to 5000 nM. For `COc1cc(OC)c(Cl)c(NC(=O)c2csc3c(Nc4ccc(CN5CCOCC5)cn4)ncnc23)c1Cl` [Example 247, N-(2,6-dichloro-3,5-dimethoxyphenyl)-4-(5-(morpholinomethyl)pyridin-2-ylamino)thieno[3,2-d]pyrimidine-7-carboxamide], the IC50 was 1 to 100 nM.

Another assay addresses T2, FGFR3 (Homo sapiens, UniProt P22607).
T2 construct: purchased Upstate Company
Put plainly: Inhibition of FGFR3 kinase (fluorescence polarization kinase assay). The class given is biochemical. As to conditions: Table 2, class symbols; read-out: FGFR3 IC50. Here is the method: as §1, §2, §3, §4
In the case of `COc1c(Cl)c(NC(=O)c2csc3c(Nc4ccc(F)c(Cl)c4)ncnc23)c(Cl)c(OC)c1Br` [Example 287, N-(4-bromo-2,6-dichloro-3,5-dimethoxyphenyl)-4-(3-chloro-4-fluorophenylamino) thieno[3,2-d]pyrimidine-7-carboxamide], the IC50 lay within 1000 to 5000 nM. Take `COc1cc(OC)c(Cl)c(NC(=O)c2csc3c(Nc4ccc(C(=O)N5CCOCC5)cn4)ncnc23)c1Cl` [Example 255, N-(2,6-dichloro-3,5-dimethoxyphenyl)-4-(5-(morpholine-4-carbonyl)pyridin-2-ylamino)thieno[3,2-d]pyrimidine-7-carboxamide]: the IC50 lay in the range of 1 to 100 nM. As to `COc1cc(OC)c(Cl)c(NC(=O)c2csc3c(Nc4ccc(C)cn4)ncnc23)c1Cl` [Example 178, N-(2,6-dichloro-3,5-dimethoxyphenyl)-4-(5-methylpyridin-2-ylamino)thieno[3,2-d]pyrimidine-7-carboxamide], the IC50 was in the range of 100 to 500 nM.

For `CCN1CCN(Cc2ccc(Nc3ncnc4c(C(=O)Nc5c(Cl)c(OC)cc(OC)c5Cl)csc34)nc2)CC1` [Example 179, N-(2,6-dichloro-3,5-dimethoxyphenyl)-4-(5-((4-ethylpiperazin-1-yl)methyl)pyridin-2-ylamino)thieno[3,2-d]pyrimidine-7-carboxamide], the IC50 is 1 to 100 nM. As for `COc1cc(OC)c(Cl)c(NC(=O)c2csc3c(Nc4ccc(CC(=O)N5CCOCC5)cn4)ncnc23)c1Cl` [Example 257, N-(2,6-dichloro-3,5-dimethoxyphenyl)-4-(5-(2-morpholino-2-oxoethyl)pyridin-2-ylamino)thieno[3,2-d]pyrimidine-7-carboxamide], the concentration for half-maximal inhibition (IC50) fell in the range of 1 to 100 nM. The same measure, in the same setting: for `COc1cc(NC(=O)c2csc3c(Nc4ccccc4)ncnc23)c2ccoc2c1` [Example 114] the value was 1000 to 5000 nM; for `COc1cc(OC)c(Cl)c(NC(=O)c2csc3c(NCCNc4ccccc4)ncnc23)c1Cl` [Example 304, N-(2,6-dichloro-3,5-dimethoxyphenyl)-4-(2-(phenylamino)ethyl-amino)thieno[3,2-d]pyrimidine-7-carboxamide], 1000 to 5000 nM; for `COc1cc(OC)c(Cl)c(NC(=O)c2csc3c(Nc4ccc(C(N)=O)cn4)ncnc23)c1Cl` [Example 274, 4-(5-carbamoylpyridin-2-ylamino)-N-(2,6-dichloro-3,5-dimethoxyphenyl) thieno[3,2-d]pyrimidine-7-carboxamide], 1 to 100 nM. For the molecule `CCN1CCN(c2ccc(C(=O)Nc3ncnc4c(C(=O)Nc5c(Cl)c(OC)cc(OC)c5Cl)csc34)cc2)CC1` [Example 204, N-(2,6-dichloro-3,5-dimethoxyphenyl)-4-(4-(4-ethylpiperazin-1-yl)benzamido)thieno[3,2-d]pyrimidine-7-carboxamide], the half-inhibitory concentration (IC50) is 100 to 500 nM. Take `COc1cc(OC)c(Cl)c(NC(=O)c2csc3c(NC4CC4)ncnc23)c1Cl` [Example 168, 4-(cyclopropylamino)-N-(2,6-dichloro-3,5-dimethoxyphenyl) thieno[3,2-d]pyrimidine-7-carboxamide]: the IC50 is 1 to 100 nM. As to `COc1cc(OC)c(Cl)c(NC(=O)c2csc3c(Nc4ccc(CN5CCOCC5)cn4)ncnc23)c1Cl` [Example 247, N-(2,6-dichloro-3,5-dimethoxyphenyl)-4-(5-(morpholinomethyl)pyridin-2-ylamino)thieno[3,2-d]pyrimidine-7-carboxamide], the IC50 fell in the range of 1 to 100 nM. For the molecule `COc1cc(OC)c(Cl)c(NC(=O)c2csc3c(Nc4cc(C)ccn4)ncnc23)c1Cl` [Example 270, N-(2,6-dichloro-3,5-dimethoxyphenyl)-4-(4-methylpyridin-2-ylamino)thieno[3,2-d]pyrimidine-7-carboxamide], the IC50 lay in the range of 1 to 100 nM. Still for that read-out and setting: for `COc1cc(OC)c(Cl)c(/C=C/c2csc3c(N)ncnc23)c1Cl` [Example 76, 7-(2,6-dichloro-3,5-dimethoxystyryl) thieno[3,2-d]pyrimidine-4-amine] the value was 1000 to 5000 nM; for `COc1cc(OC)c(Cl)c(NC(=O)c2csc3c(Nc4ccc(CN5CCCC(C(F)(F)F)C5)cn4)ncnc23)c1Cl` (stereo not drawn) [Example 259, N-(2,6-dichloro-3,5-dimethoxyphenyl)-4-(5-((3-(trifluoromethyl)piperidin-1-yl)methyl)pyridin-2-ylamino)thieno[3,2-d]pyrimidine-7-carboxamide], 1000 to 5000 nM. In the case of `CCN1CCN(c2cc(Nc3ncnc4c(C(=O)Nc5c(Cl)c(OC)cc(OC)c5Cl)csc34)ncn2)CC1` [Example 182, N-(2,6-dichloro-3,5-dimethoxyphenyl)-4-(6-(4-ethylpiperazin-1-yl)pyrimidin-4-ylamino)thieno[3,2-d]pyrimidine-7-carboxamide], the 50% inhibitory concentration (IC50) lay in the range of 1 to 100 nM. Turning to `CCN1CCN(CCCNc2ncnc3c(C(=O)Nc4c(Cl)c(OC)cc(OC)c4Cl)csc23)CC1` [Example 171, N-(2,6-dichloro-3,5-dimethoxyphenyl)-4-(3-(4-ethylpiperazin-1-yl)propylamino) thieno[3,2-d]pyrimidine-7-carboxamide], the IC50 lay within 1000 to 5000 nM. With `COc1cc(OC)c(Cl)c(NC(=O)c2csc3c(Nc4cc(NCCN5CCOCC5)ncn4)ncnc23)c1Cl` [Example 208, N-(2,6-dichloro-3,5-dimethoxyphenyl)-4-(6-(2-morpholinoethyl-amino)pyrimidin-4-ylamino)thieno[3,2-d]pyrimidine-7-carboxamide], the half-maximal inhibitory concentration (IC50) fell in the range of 1 to 100 nM. In the case of `CCN1CCN(c2ccc(C(=O)Nc3ncnc4c(C(=O)Nc5c(Cl)c(OC)c(Br)c(OC)c5Cl)csc34)cc2)CC1` [Example 203, N-(4-bromo-2,6-dichloro-3,5-dimethoxyphenyl)-4-(4-(4-ethylpiperazin-1-yl)benzamido)thieno[3,2-d]pyrimidine-7-carboxamide], the IC50 is 1000 to 5000 nM. Take `COc1cc(OC)c(Cl)c(NC(=O)c2csc3c(Nc4cc(CN5CCSC5)ccn4)ncnc23)c1Cl` [Example 291, N-(2,6-dichloro-3,5-dimethoxyphenyl)-4-(4-(thiazolidin-3-ylmethyl)pyridin-2-ylamino)thieno[3,2-d]pyrimidine-7-carboxamide]: the half-maximal inhibitory concentration (IC50) was in the range of 1 to 100 nM. On to `COc1cc(OC)c(Cl)c(NC(=O)c2csc3c(Nc4ccc(C(=O)NN5CCN(C)CC5)cn4)ncnc23)c1Cl` [Example 268, N-(2,6-dichloro-3,5-dimethoxyphenyl)-4-(5-(4-methylpiperazin-1-ylcarbamoyl)pyridin-2-ylamino)thieno[3,2-d]pyrimidine-7-carboxamide], for which the IC50 is 1 to 100 nM.

`CCN(CC)C(=O)Cc1ccnc(Nc2ncnc3c(C(=O)Nc4c(Cl)c(OC)cc(OC)c4Cl)csc23)c1` [Example 292, N-(2,6-dichloro-3,5-dimethoxyphenyl)-4-(4-(2-(diethylamino)-2-oxoethyl)pyridin-2-ylamino)thieno[3,2-d]pyrimidine-7-carboxamide]: the concentration for half-maximal inhibition (IC50) lay in the range of 1 to 100 nM. Still for that read-out and setting: for `COc1cc(OC)c(Cl)c(NC(=O)c2csc3c(NS(C)(=O)=O)ncnc23)c1Cl` [Example 206, N-(2,6-dichloro-3,5-dimethoxyphenyl)-4-(methylsulfonamido) thieno[3,2-d]pyrimidine-7-carboxamide] the value was 1000 to 5000 nM; for `COc1cc(OC)c(Cl)c(NC(=O)c2csc3c(Nc4cc(OCCN(C)C)ncn4)ncnc23)c1Cl` [Example 209, N-(2,6-dichloro-3,5-dimethoxyphenyl)-4-(6-(2-(dimethylamino)eth-oxy)pyrimidin-4-ylamino)thieno[3,2-d]pyrimidine-7-carboxamide], 100 to 500 nM; for `CCN(CC)CCCCNc1ncnc2c(C(=O)Nc3c(Cl)c(OC)c(Br)c(OC)c3Cl)csc12` [Example 157, N-(4-bromo-2,6-dichloro-3,5-dimethoxyphenyl)-4-(4-(diethylamino)butyl-amino)thieno[3,2-d]pyrimidine-7-carboxamide], 1000 to 5000 nM. For `COc1cc(OC)c(Cl)c(NC(=O)c2csc3c(Nc4ccc(CN5CCNC(=O)C5)cn4)ncnc23)c1Cl` [Example 263, N-(2,6-dichloro-3,5-dimethoxyphenyl)-4-(5-((3-oxopiperazin-1-yl)methyl)pyridin-2-ylamino)thieno[3,2-d]pyrimidine-7-carboxamide], the 50% inhibitory concentration (IC50) lay within 1 to 100 nM. On to `CCN(CC)Cc1cccc(Nc2ncnc3c(C(=O)Nc4c(Cl)c(OC)cc(OC)c4Cl)csc23)n1` [Example 273, N-(2,6-dichloro-3,5-dimethoxyphenyl)-4-(6-((diethylamino)methyl)pyridin-2-ylamino)thieno[3,2-d]pyrimidine-7-carboxamide], for which the IC50 was in the range of 1000 to 5000 nM. Still for that read-out and setting: to `COc1cc(NC(=O)c2csc3c(N)ncnc23)c2ccoc2c1` [Example 113] belongs 1000 to 5000 nM.
